What was measured:
human fibroblasts = assay: Direct conversion of human fibroblasts to brown adipocytes in serum-free medium SFBAM, efficiency judged comprehensively; assay type: cell-based; conditions: conclusion from removal experiments
Protocol: The above human fibroblasts were seeded in 35 mm dishes coated with gelatin (Cat #: 190-15805, manufactured by FUJIFILM Wako Pure Chemical Co.) at 5×10^4, and cultured in DMEM medium (Cat #: 11965092; manufactured by Gibco) supplemented with 10% fetal bovine serum (FBS), 100 U/mL penicillin, 100 μg/mL streptomycin until 80% to 90% confluency at 37° C., 5% CO2.
Hereinafter, this is referred to as serum-free brown adipocyte-inducing medium “SFBAM”.
After the human fibroblasts reached 80% to 90% confluency, the dish medium was replaced with the above SFBAM and the human fibroblasts were cultured in SFBAM for 3 weeks. The medium was changed every 3 days.
The more the number of + marks, the higher the conversion efficiency. […] The mark − indicates no conversion to brown adipocytes.

[1] = system: β-adrenergic receptor signal pathway in brown adipocytes; assay: Heat production capacity: Ucp1 mRNA after isoproterenol treatment of induced brown adipocytes; assay type: cell-based, human; conditions: 6 hours treatment of cells induced with Example 3 (3 weeks SFBAM + 1 week SFBAMaM); compared with control treated with H2O; FIG. 9
Protocol: To quantify gene expression, total RNAs were extracted from fibroblasts treated with the respective compounds using FastGene (registered trademark) RNA basic kit (manufactured by Nippon Genetics Co., Ltd.). Fibroblasts were cultured in parallel using SFBAM as a control, and the total RNAs were extracted from the brown adipocytes induced with compounds and the control cells. After performing reverse-transcription with ReverTraAce (registered trademark) PCR RT Master Mix with gDNA Remover (manufactured by Toyobo Co., Ltd.), the real-time PCR analysis was performed by Power SYBR Green PCR Master Mix (Thermo Fisher Scientific). Three reactions were carried out per level under the following conditions: 40 cycles of reactions at 95° C. for 10 minutes, at 95° C. for 15 seconds, and at 60° C. for 60 seconds, in order. All results were normalized to the quantity of Tbp mRNA.
Regarding the cells, Ucp1 mRNA was quantified in the case after treatment with isoproterenol (β-adrenergic receptor agonist) for 6 hours and in the case after treatment with H2O, which is the solvent.

SMILES	conversion efficiency attributed to the single compound (human fibroblasts)	Ucp1 mRNA increase after treatment [1]
C=C[C@@]1(C)CC(=O)[C@]2(O)[C@@]3(C)[C@@H](O)CCC(C)(C)[C@@H]3[C@H](O)[C@H](OC(C)=O)[C@@]2(C)O1 [forskolin, Forskolin]	followed by a high conversion efficiency	
CC(C)NCC(O)c1ccc(O)c(O)c1 (stereo not drawn) [isoproterenol, Isoproterenol]		up to 3.1 fold
CN(CCOc1ccc(CC2SC(=O)NC2=O)cc1)c1ccccn1 (stereo not drawn) [rosiglitazone, Rosiglitazone]	high conversion efficiency	

Source: US20230059404A1, “Method for Producing Brown Adipocytes” (Kataoka Corporation, priority 2019, published 2023)
